For this experiment, the target named is T1, human recombinant A3AR (expressed in HEK-293 cells) (Homo sapiens, UniProt P0DMS8).
T1 construct: host or cells: HEK-293 cells
T1 sequence (P0DMS8 1-318): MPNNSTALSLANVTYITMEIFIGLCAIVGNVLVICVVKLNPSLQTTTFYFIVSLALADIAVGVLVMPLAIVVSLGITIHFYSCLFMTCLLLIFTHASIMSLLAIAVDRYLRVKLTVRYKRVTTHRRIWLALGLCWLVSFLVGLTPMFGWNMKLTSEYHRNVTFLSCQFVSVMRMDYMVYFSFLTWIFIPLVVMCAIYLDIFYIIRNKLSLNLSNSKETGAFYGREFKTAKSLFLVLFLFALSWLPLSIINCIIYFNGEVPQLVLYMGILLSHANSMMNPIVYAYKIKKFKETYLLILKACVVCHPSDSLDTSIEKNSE
Kind of experiment: Adenosine receptors antagonism assay (Eurofins), [125I]-AB-MECA radioligand competition. Format: binding. The following applies: [125I]-AB-MECA 0.15 nM, r.t., 120 min; IC50 from dose-response curves; read-out: Potency Class A3AR. In general terms: Displacement assays read how much labelled ligand stays bound in the presence of the test substance.

pIC50: −log10 of the molar value. Bounds are passed on as bounds.

Protocol: Assays were carried out at r.t. for 120 min. Compounds were initially tested at three concentrations (0.01, 0.1, 1 µM). […] IC50 values, which is the concentration causing a half-maximal inhibition of control specific binding, and Hill coefficients (nH) were determined by non-linear regression analysis of the competition curves generated with mean replicate values using Hill equation curve fitting. The inhibition constants (Ki) were calculated using the Cheng Prusoff equation.

On to `CCC(CC)Nc1cc(NCc2cccc(N)c2)c2nnc(C(C)C)n2n1` [compound 76, N8-[(3-aminophenyl)methyl]-N6-(1-ethylpropyl)-3-isopropyl-[1,2,4]triazolo[4,3-b]pyridazine-6,8-diamine], for which the pIC50 was 8.00 to 9.00.

Turning to `CCC(CC)Nc1cc(NCc2ccccc2N)c2nnc(C(C)C)n2n1` [compound 77, N8-[(2-aminophenyl)methyl]-N6-(1-ethylpropyl)-3-isopropyl-[1,2,4]triazolo[4,3-b]pyridazine-6,8-diamine], the pIC50 was 7.00 to 8.00.

Turning to `CCC(CC)Nc1cc(NCc2cc3ccccc3[nH]2)c2nnc(C(C)C)n2n1` [compound 78, N6-(1-ethylpropyl)-N8-(1H-indol-2-ylmethyl)-3-isopropyl-[1,2,4]triazolo[4,3-b]pyridazine-6,8-diamine], the pIC50 was 7.00 to 8.00.

With `CCC(CC)Nc1cc(N2Cc3ccccc3C2)c2nnc(C(C)C)n2n1` [compound 79, N-(1-ethylpropyl)-8-isoindolin-2-yl-3-isopropyl-[1,2,4]triazolo[4,3-b]pyridazin-6-amine], the pIC50 is 6.00 to 7.00.

For the compound `CCC(CC)Nc1cc(N2CCc3ccccc3C2)c2nnc(C(C)C)n2n1` [compound 80, 8-(3,4-dihydro-1H-isoquinolin-2-yl)-N-(1-ethylpropyl)-3-isopropyl-[1,2,4]triazolo[4,3-b]pyridazin-6-amine], the pIC50 was 8.00 to 9.00.

As to `CCC(CC)Nc1cc(NCCc2ccccc2)c2nnc(C(C)C)n2n1` [compound 82, N6-(1-ethylpropyl)-3-isopropyl-N8-(2-phenylethyl)-[1,2,4]triazolo[4,3-b]pyridazine-6,8-diamine], the pIC50 was 8.00 to 9.00.

For the compound `CCC(CC)Nc1cc(NCCc2ccccn2)c2nnc(C(C)C)n2n1` [compound 83, N6-(1-ethylpropyl)-3-isopropyl-N8-[2-(2-pyridyl)ethyl]-[1,2,4]triazolo[4,3-b]pyridazine-6,8-diamine], the pIC50 is greater than 9.00.

Turning to `CCC(CC)Nc1cc(NCCc2cccnc2)c2nnc(C(C)C)n2n1` [compound 84, N6-(1-ethylpropyl)-3-isopropyl-N8-[2-(3-pyridyl)ethyl]-[1,2,4]triazolo[4,3-b]pyridazine-6,8-diamine], the pIC50 was 8.00 to 9.00.

Consider `CCC(CC)Nc1cc(NCCc2ccncc2)c2nnc(C(C)C)n2n1` [compound 85, N6-(1-ethylpropyl)-3-isopropyl-N8-[2-(4-pyridyl)ethyl]-[1,2,4]triazolo[4,3-b]pyridazine-6,8-diamine], for which the pIC50 is 8.00 to 9.00.

As to `CCC(CC)Nc1cc(NCCc2ccccn2)c2nnc(C3CC3)n2n1` [compound 86, 3-cyclopropyl-N6-(1-ethylpropyl)-N8-[2-(2-pyridyl)ethyl]-[1,2,4]triazolo[4,3-b]pyridazine-6,8-diamine], the pIC50 is greater than 9.00.

For the compound `CCC(CC)Nc1cc(NCCc2cccnc2)c2nnc(C3CC3)n2n1` [compound 87, 3-cyclopropyl-N6-(1-ethylpropyl)-N8-[2-(3-pyridyl)ethyl]-[1,2,4]triazolo[4,3-b]pyridazine-6,8-diamine], the pIC50 is greater than 9.00.

Turning to `CCC(CC)Nc1cc(NCCc2ccncc2)c2nnc(C3CC3)n2n1` [compound 88, 3-cyclopropyl-N6-(1-ethylpropyl)-N8-[2-(4-pyridyl)ethyl]-[1,2,4]triazolo[4,3-b]pyridazine-6,8-diamine], the pIC50 is 8.00 to 9.00.

`CCC(CC)Nc1cc(NCCCc2ccccn2)c2nnc(C(C)C)n2n1` [compound 89, N6-(1-ethylpropyl)-3-isopropyl-N8-[3-(2-pyridyl)propyl]-[1,2,4]triazolo[4,3-b]pyridazine-6,8-diamine]: the pIC50 is 7.00 to 8.00.

On to `CCC(CC)Nc1cc(NCCCc2cccnc2)c2nnc(C(C)C)n2n1` [compound 90, N6-(1-ethylpropyl)-3-isopropyl-N8-[3-(3-pyridyl)propyl]-[1,2,4]triazolo[4,3-b]pyridazine-6,8-diamine], for which the pIC50 is 8.00 to 9.00.

Consider `CCC(CC)Nc1cc(NCCCc2ccncc2)c2nnc(C(C)C)n2n1` [compound 91, N6-(1-ethylpropyl)-3-isopropyl-N8-[3-(4-pyridyl)propyl]-[1,2,4]triazolo[4,3-b]pyridazine-6,8-diamine], for which the pIC50 is 8.00 to 9.00.

Turning to `CCC(CC)Nc1cc(NCc2ncccn2)c2nnc(C(C)C)n2n1` [compound 92, N6-(1-ethylpropyl)-3-isopropyl-N8-(pyrimidin-2-ylmethyl)-[1,2,4]triazolo[4,3-b]pyridazine-6,8-diamine], the pIC50 was 7.00 to 8.00.

As for `CCC(CC)Nc1cc(NCc2cncnc2)c2nnc(C(C)C)n2n1` [compound 93, N6-(1-ethylpropyl)-3-isopropyl-N8-(pyrimidin-5-ylmethyl)-[1,2,4]triazolo[4,3-b]pyridazine-6,8-diamine], the pIC50 is 8.00 to 9.00.

As for `CCC(CC)Nc1cc(NCc2cnccn2)c2nnc(C(C)C)n2n1` [compound 94, N6-(1-ethylpropyl)-3-isopropyl-N8-(pyrazin-2-ylmethyl)-[1,2,4]triazolo[4,3-b]pyridazine-6,8-diamine], the pIC50 was 8.00 to 9.00.

Take `CCC(CC)Nc1cc(NCc2cccnn2)c2nnc(C(C)C)n2n1` [compound 95, N6-(1-ethylpropyl)-3-isopropyl-N8-(pyridazin-3-ylmethyl)-[1,2,4]triazolo[4,3-b]pyridazine-6,8-diamine]: the pIC50 is 8.00 to 9.00.

Regarding `CCC(CC)Nc1cc(NC(=O)c2ccccc2)c2nnc(C(C)C)n2n1` [compound 96, N-[6-(1-ethylpropylamino)-3-isopropyl-[1,2,4]triazolo[4,3-b]pyridazin-8-yl]benzamide], the pIC50 is 7.00 to 8.00.

Consider `CCC(CC)Nc1cc(NC(=O)c2ccccn2)c2nnc(C(C)C)n2n1` [compound 97, N-[6-(1-ethylpropylamino)-3-isopropyl-[1,2,4]triazolo[4,3-b]pyridazin-8-yl]pyridine-2-carboxamide], for which the pIC50 is 7.00 to 8.00.

For the compound `CCC(CC)Nc1cc(NC(=O)Cc2ccccc2)c2nnc(C(C)C)n2n1` [compound 98, N-[6-(1-ethylpropylamino)-3-isopropyl-[1,2,4]triazolo[4,3-b]pyridazin-8-yl]-2-phenyl-acetamide], the pIC50 was greater than 9.00.

In the case of `CCOC(=O)Nc1cc(NC(CC)CC)nn2c(C(C)C)nnc12` [compound 99, ethyl N-[6-(1-ethylpropylamino)-3-isopropyl-[1.2.4]triazolo[4,3-b]pyridazin-8-yl]carbamate], the pIC50 was 8.00 to 9.00.

For `CC[C@@H](CO)Nc1cc(NCc2ccc(Br)cc2)c2nnc(C(C)C)n2n1` [compound 101, (2S)-2-[[8-[(4-bromophenyl)methylamino]-3-isopropyl-[1,2,4]triazolo[4,3-b]pyridazin-6-yl]amino]butan-1-o1], the pIC50 is 7.00 to 8.00.

As to `CC[C@@H](CO)Nc1cc(NCc2ccc(-c3ccccc3)cc2)c2nnc(C(C)C)n2n1` [compound 102, (2S)-2-[[3-isopropyl-8-[(4-phenylphenyl)methylamino]-[1,2,4]triazolo[4,3-b]pyridazin-6-yl]amino]butan-1-ol], the pIC50 was 7.00 to 8.00.

Consider `CC[C@@H](CO)Nc1cc(NCc2ccc(-c3ccncc3)cc2)c2nnc(C(C)C)n2n1` [compound 103, (2S)-2-[[3-isopropyl-8-[[4-(4-pyridyl)phenyl]methylamino]-[1,2,4]triazolo[4,3-b]pyridazin-6-yl]amino]butan-1-ol], for which the pIC50 was 7.00 to 8.00.

Consider `CC[C@@H](CO)Nc1cc(NCc2ccc(-c3cccnc3)cc2)c2nnc(C(C)C)n2n1` [compound 104, (2S)-2-[[3-isopropyl-8-[[4-(3-pyridyl)phenyl]methylamino]-[1,2,4]triazolo[4,3-b]pyridazin-6-yl]amino]butan-1-ol], for which the pIC50 is 7.00 to 8.00.

`CC[C@@H](CO)Nc1cc(NCc2ccc(-c3ccccn3)cc2)c2nnc(C(C)C)n2n1` [compound 105, (2S)-2-[[3-isopropyl-8-[[4-(2-pyridyl)phenyl]methylamino]-[1,2,4]triazolo[4,3-b]pyridazin-6-yl]amino]butan-1-ol]: the pIC50 is 7.00 to 8.00.

For `CC(C)c1nnc2c(NCc3ccc(Br)cc3)cc(N[C@H](CO)[C@@H](C)O)nn12` [compound 106, (2R,3R)-2-[[8-[(4-bromophenyl)methylamino]-3-isopropyl-[1,2,4]triazolo[4,3-b]pyridazin-6-yl]amino]butane-1,3-diol], the pIC50 is 6.00 to 7.00.

`CC(C)c1nnc2c(NCc3ccc(-c4ccccn4)cc3)cc(N[C@H](CO)[C@@H](C)O)nn12` [compound 107, (2R,3R)-2-[[3-isopropyl-8-[[4-(2-pyridyl)phenyl]methylamino]-[1,2,4]triazolo[4,3-b]pyridazin-6-yl]amino]butane-1,3-diol]: the pIC50 is 7.00 to 8.00.

`CC(C)c1nnc2c(NCc3ccc(-c4ccncc4)cc3)cc(N[C@H](CO)[C@@H](C)O)nn12` [compound 108, (2R,3R)-2-[[3-isopropyl-8-[[4-(4-pyridyl)phenyl]methylamino]-[1,2,4]triazolo[4,3-b]pyridazin-6-yl]amino]butane-1,3-diol]: the pIC50 was 6.00 to 7.00.

Regarding `COCCCNc1cc(NCCCOC)c2nnc(-c3ccccc3)n2n1` [compound 109, N6,N8-bis(3-methoxypropyl)-3-phenyl-[1,2,4]triazolo[4,3-b]pyridazine-6,8-diamine], the pIC50 was 6.00 to 7.00.

On to `COCCCNc1cc(NCCCOC)c2nnc(C3CC3)n2n1` [compound 110, 3-cyclopropyl-N6,N8-bis(3-methoxypropyl)-[1,2,4]triazolo[4,3-b]pyridazine-6,8-diamine], for which the pIC50 was 7.00 to 8.00.

For `COCCCNc1cc(NCCCOC)c2nnc(C(F)(F)F)n2n1` [compound 111, N6,N8-bis(3-methoxypropyl)-3-(trifluoromethyl)-[1,2,4]triazolo[4,3-b]pyridazine-6,8-diamine], the pIC50 is 7.00 to 8.00.

These data come from EP4477653A1 (Perha Pharmaceuticals, priority 2023, dated 2024).
